# Measured values taken from paper PMC10789292 (Journal of Alzheimer's Disease Reports, 2023).
# Test system: cPLA2-IVA expressed in mouse brain
# Assay: Peptide binding to brain slices by IHC
# Conditions: for Binding (staining) to healthy NMRI and APP/PS1 mouse brain slices: biotinylated peptide 20 μM in HCN, overnight 4°C, DAB detection
Sequence,Binding (staining) to healthy NMRI and APP/PS1 mouse brain slices,"Staining of APP/PS1 versus healthy brain slices (biotinylated peptide 20 μM, 2 years old APP/PS1 mice)"
YQFGYDYPRSQV [PLP1],unable to bind the brain tissue,
DDFRVWWPNFPR [PLP2],good staining,
HVTLRYMHPMVS [PLP25],good staining,higher staining of APP/PS1 brain slices
